Several values for one entry are separate records, joined by “and”; a condition that tells them apart may be missing. Equal entries are not always repeated. Structures can show the parent of a compound that is named as a salt. Where only a bound is given, the exact number is not on record here.

The text below walks through data of patent publication US7667042B2, “Stable polymorphic forms of an anticonvulsant” (Sun Pharma Advanced Research Company Ltd., priority 2003, dated 2010).

Data set [1] in a line: XRD analysis after 6 months storage at ambient conditions (polymorph stability). The data set is classed as physicochemical. The settings on record: hydrochloride. From the text: In embodiment of the present invention the stable polymorph IV of tiagabine hydrochloride may be obtained in particle size with volume mean diameter (VMD) less than 20 microns.
A short description of data set [2]: Particle size analysis by HELOS (H1551) & RODOS. The data set is classed as physicochemical. Conditions: hydrochloride. From the text:
Particle Size Analysis (Analysed by HELOS (H1551) & RODOS)

The conditions of data set [3]: reported in prior art, cited from earlier work; for Thermal stability: elevated temperature, hydrochloride.
A short description of data set [4]: Solubility of tiagabine hydrochloride in various solvents at room temperature. The data set is classed as physicochemical. The settings on record: 100 mg sample.

Take `Cc1ccsc1C(=CCCN1CCC[C@@H](C(=O)O)C1)c1sccc1C` [Form IV, tiagabine hydrochloride]: the figures for the “Change in x-ray diffraction pattern on storage (polymorphic stability)” value in data set [1] and in data set [1] (listed as polymorph IV) were “matches the XRD of ‘0’ day sample” and “no change in the x-ray diffraction pattern”, respectively. Moreover, the “Volume mean diameter (VMD)” value in data set [2] was 16.7 microns and 19.8 microns.
With `Cc1ccsc1C(=CCCN1CCC[C@@H](C(=O)O)C1)c1sccc1C` [Form I, tiagabine hydrochloride], in data set [3], the Thermal stability entry is “less stable at elevated temperature”, the Hygroscopicity result is “non-hygroscopic” and the Stability entry is “stable”. The “Volume mean diameter (VMD)” value in data set [2] was 60.2 microns.
As for `Cc1ccsc1C(=CCCN1CCC[C@@H](C(=O)O)C1)c1sccc1C` [tiagabine hydrochloride], the “Solubility: volume of solvent” value in data set [4] (Acetone) is 24 mL; in data set [4] (Acetonitrile), more than 100 mL; in data set [4] (DMF), 0.5 mL; in data set [4] (Ethanol), 0.3 mL; in data set [4] (Ethylacetate), more than 100 mL; in data set [4] (IPA), 1.3 mL. Also, the “Solubility: volume of solvent” value in data set [4] (Methanol) was 0.2 mL; in data set [4] (Toluene), more than 100 mL; in data set [4] (Water) it was 0.7 mL.
On to `Cc1ccsc1C(=CCCN1CCC[C@@H](C(=O)O)C1)c1sccc1C` [Form II, tiagabine hydrochloride], for which, in data set [3], the Thermal stability result is “thermally stable” and the Hygroscopicity entry is reported as “non-hygroscopic”.
